In patent publication US9365605B2, “Cyclic nucleotide analogs” (priority 2010, dated 2016):
Read-outs that look alike come from different tables or passages of the source.

System: Huh-7 cells containing the self-replicating, subgenomic HCV replicon with a stable luciferase (LUC) reporter
Assay: HCV replicon assay (luciferase reporter, Bright-Glo)
Assay type: cell-based
Description: Huh-7 cells containing the self-replicating, subgenomic HCV replicon with a stable luciferase (LUC) reporter were cultured in Dulbecco's modified Eagle's medium (DMEM) containing 2 mM L-glutamine and supplemented with 10% heat-inactivated fetal bovine serum (FBS), 1% penicillin-streptomyocin, 1% nonessential amino acids, and 0.5 mg/mL G418.
Determination of 50% inhibitory concentration (EC50) of compounds in HCV replicon cells were performed by the following procedure. On the first day, 5,000 HCV replicon cells were plated per well in a 96-well plate. On the following day, test compounds were solubilized in 100% DMSO to 100× the desired final testing concentration. Each compound was then serially diluted (1:3) up to 9 different concentrations. Compounds in 100% DMSO are reduced to 10% DMSO by diluting 1:10 in cell culture media. The compounds were diluted to 10% DMSO with cell culture media, which were used to dose the HCV replicon cells in 96-well format. The final DMSO concentration was 1%. The HCV replicon cells were incubated at 37° C. for 72 hours. At 72 hours, cells were processed when the cells are still subconfluent. Compounds that reduce the LUC signal are determined by Bright-Glo Luciferase Assay (Promega, Madison, Wis.). % Inhibition was determined for each compound concentration in relation to the control cells (untreated HCV replicon) to calculate the EC50.
Compounds of Formula (I) are active in the replicon assay. The antiviral activity of exemplary compounds is shown in Table 5, where ‘A’ indicates an EC50<1 μM, ‘B’ indicates an EC50≧1 μM and <10 μM, and ‘C’ indicates an EC50≧10 μM and <100 μM.

## COc1nc(N)nc2c1ncn2[C@@H]1O[C@@H]2COP(=S)(OC)O[C@H]2[C@@]1(C)O (some centres unmarked) [Compound 1a, (Rp/Sp) 2′-C-methyl-6-O-methyl-guanosine-3′,5′-cyclic-O-methyl phosphorothioate]
Hepatitis C virus, Huh-7, 72 h
  EC50: < 1 µM

## COP1(=O)O[C@H]2[C@@H](O)[C@H](n3cnc4c(N)ncnc43)O[C@@H]2[C@H](C)O1 (some centres unmarked) [Compound 8a]
Hepatitis C virus, HCV replicon cells (Huh-7), 72 hours incubation, LUC signal, read-out: EC50
  EC50: 10 to 100 µM

## COP1(=S)OC[C@H]2O[C@@H](n3ccc(=O)[nH]c3=O)[C@](C)(O)[C@@H]2O1 (some centres unmarked) [Compound 10a, 1-(7-Hydroxy-2-methoxy-7-methyl-2-thioxo-tetrahydro-2l5-furo[3,2-d][1,3,2]dioxaphosphinin-6-yl)-1H-pyrimidine-2,4-dione]
Hepatitis C virus, Huh-7, 72 h
  EC50: 10 to 100 µM

## CC(C)OP1(=S)OC[C@H]2O[C@@H](n3ccc(=O)[nH]c3=O)[C@](C)(O)[C@@H]2O1 (some centres unmarked) [Compound 11a, 1-(7-Hydroxy-2-isopropoxy-7-methyl-2-thioxo-tetrahydro-2l5-furo[3,2-d][1,3,2]dioxaphosphinin-6-yl)-1H-pyrimidine-2,4-dione]
Hepatitis C virus, Huh-7, 72 h
  EC50: 1 to 10 µM

## COc1nc(N)nc2c1ncn2[C@@H]1O[C@@H]2COP(=O)(SCOC(=O)C(C)(C)C)O[C@H]2[C@@]1(C)O (some centres unmarked) [Compound 12a, 2′-C,O^6-Dimethylguanosine 3′,5′-cyclic O-pivaloyloxymethyl phosphorothioate]
HCV replicon cells (Huh-7), 72 hours incubation, LUC signal, read-out: EC50
  EC50: < 1 µM
